pEC50, pIC50: −log10 of the molar value. Read-outs that look alike come from different tables or passages of the source.
Columns and labels:
[1] = target: Japanese encephalitis virus (JEV)-NS2B-NS3 protease (Japanese encephalitis virus, UniProt P32886, DEL1469-1493); test: JEV protease inhibition assay; type: biochemical
[2] = system: ZIKV replicon; test: ZIKV replication inhibition assay (NanoLuc replicon in Vero cells); details: 72 h
[3] = target: T1, West Nile Virus (WNV) NS2B-NS3 protease (West Nile virus, UniProt Q9Q6P4); test: WNV protease inhibition assay; type: biochemical; details: Table 4; letter codes for IC50
T1 construct: NS2B1423-1470); purchased R&D 2907-SE-020
From the text: WNV protease inhibition assay

[4] = read-out: JEV - NS3 protease, 600 nM enzyme, 10 µM Pyr-RTKR-AMC substrate, 25 °C
[5] = Zika virus, Vero, read-out: ZIKA Cell_Nanoluc
[6] = read-out: ZIKA Cell_Nanoluc, Vero cells with stable ZIKV replicon, Nano-Glo readout
[7] = Zika virus, Vero, read-out: ZIKA Cell_Nanoluc, Vero cells with stable ZIKV replicon, 72 h, Nano-Glo readout

| Compound | pIC50 [1, 4] | pEC50 [2, 5] | pIC50 [3] | other results |
| --- | --- | --- | --- | --- |
| COc1ncc(-c2ccc(C[n+]3cc([N-]C(=O)Nc4cc(NC(=O)c5ccccc5)cc(C(F)(F)F)c4)on3)cc2)c(C)n1 [Example 15] | 4.70 to 6.00 | 6.00 to 7.00 |  |  |
| COc1ncc(-c2ccc(C[n+]3cc([N-]C(=O)Nc4cc(NC(=O)Cc5ccc(Cl)cc5)cc(C(F)(F)F)c4)on3)cc2)c(C)n1 [Example 17] | < 4.70 | 4.70 to 6.00 |  |  |
| COc1ncc(-c2ccc(C[n+]3cc([N-]C(=O)Nc4cc(NC(=O)Cc5noc6ccccc56)cc(C(F)(F)F)c4)on3)cc2)c(C)n1 [Example 20] | < 4.70 | < 4.70 |  |  |
| COc1ncc(-c2ccc(C[n+]3cc([N-]C(=O)Nc4cc(NC(=O)Cc5ccc(CN)cc5)cc(C(F)(F)F)c4)on3)cc2)c(C)n1 [Example 22] | < 4.70 | 4.70 to 6.00 |  |  |
| N[C@H]1C[C@H]([n+]2cc([N-]C(=O)Nc3cc(NC(=O)Cc4ccccc4)cc(C(F)(F)F)c3)on2)C1 [Example 26, (3-((1R,3R)-3-Aminocyclobutyl)-1,2,3-oxadiazol-3-ium-5-yl)((3-(2-phenylacetamido)-5-(trifluoromethyl)phenyl)carbamoyl)amide] |  | < 4.70 |  | pIC50 [1]: 4.70 to 6.00 |
| CN(C)[C@H]1C[C@H]([n+]2cc([N-]C(=O)Nc3cc(NC(=O)Cc4ccccc4)cc(C(F)(F)F)c3)on2)C1 [Example 55, (3-((1R3R)-3-(Dimethylamino)cyclobutyl)-1,2,3-oxadiazol-3-ium-5-yl)((3-(2-phenyl-acetamido)-5-(trifluoromethyl)phenyl)-carbamoyl)amide] |  | 4.70 to 6.00 |  | pIC50 [1]: 4.70 to 6.00 |
| CN(C)C[C@H]1CC[C@H]([n+]2cc([N-]C(=O)Nc3cc(NC(=O)Cc4ccccc4)cc(C(F)(F)F)c3)on2)CC1 [Example 94, (3-((1R,4R)-4-((Dimethylamino)methyl)-cyclohexyl)-1,2,3-oxadiazol-3-ium-5-yl)((3-(2-phenylacetamido)-5-(trifluoromethyl)phenyl)-carbamoyl)amide] | 4.70 to 6.00 |  |  |  |
| Cc1ccccc1CC(=O)Nc1cc(NC(=O)[N-]c2c[n+]([C@@H]3CCC[C@@H](C(N)=O)C3)no2)cc(C(F)(F)F)c1 [Example 267, (3-((1R,3R)-3-Carbamoylcyclohexyl)-1,2,3-oxadiazol-3-ium-5-yl)((3-(2-(o-tolyl)acetamido)-5-(trifluoromethyl)phenyl)carbamoyl)amide] |  |  | 6.00 to 7.00 | pEC50 [2, 6]: 4.70 to 6.00 |
| Cc1nn(C)c(C)c1-c1ccc(C[n+]2cc([N-]C(=O)Nc3ccnc(C(F)(F)F)c3)on2)cc1 [Example 268, ((2-(Trifluoromethyl)pyridin-4-yl)carbamoyl)(3-(4-(1,3,5-trimethyl-1H-pyrazol-4-yl)benzyl)-1,2,3-oxadiazol-3-ium-5-yl)amide] |  |  | > 7.00 | pEC50 [2, 7]: > 7.00 |
| Cc1ncnc(C)c1-c1ccc(C[n+]2cc([N-]C(=O)Nc3cc(C(F)(F)F)c4ncccc4c3)on2)cc1 [Example 272, (3-(4-(4,6-Dimethylpyrimidin-5-yl)benzyl)-1,2,3-oxadiazol-3-ium-5-yl)((8-(trifluoromethyl)-quinolin-6-yl)carbamoyl)amide] |  |  | 4.70 to 6.00 | pEC50 [2, 7]: 6.00 to 7.00 |
| CNC(=O)c1ccc(NC(=O)[N-]c2c[n+](Cc3ccc(-c4c(C)ncnc4C)cc3)no2)cc1C(F)(F)F [Example 273, (3-(4-(4,6-Dimethylpyrimidin-5-yl)benzyl)-1,2,3-oxadiazol-3-ium-5-yl)((4-(methyl-carbamoyl)-3-(trifluoromethyl)phenyl)carbamoyl)amide] |  |  | 6.00 to 7.00 | pEC50 [2, 7]: 4.70 to 6.00 |
| (3-((1R,4R)-4-((Dimethylamino)methyl)-cyclohexyl)-1,2,3-oxadiazol-3-ium-5-yl)((3-(2-(3- methoxyphenyl)acetamido)-5-(trifluoromethyl)- phenyl)carbamoyl)amide [Example 152] |  |  | 6.00 to 7.00 | pEC50 [2, 6]: 4.70 to 6.00 |
| ((3-(2-(3-(Carboxymethyl)phenyl)acetamido)-5-(trifluoromethyl)phenyl)carbamoyl)(3-((1R,4R)-4-((dimethylamino)methyl)cyclohexyl)-1,2,3-oxadiazol-3-ium-5-yl)amide [Example 155] |  |  | 6.00 to 7.00 | pEC50 [2, 6]: 4.70 to 6.00 |

— patent EP4563146A1 (IRBM S.P.A., priority 2023, dated 2025)
